# Patent US20230202985A1, “Indoles, Indazoles, and Related Analogs for Inhibiting YAP/TAZ-TEAD” (THE KATHOLIEKE UNIVERSITEIT LEUVEN, priority 2021, published 2023)
# Tested on: YAP/TAZ-TEAD transcription
# Test: Reporter gene assay for measuring the inhibition of YAP/TAZ-TEAD transcription (TEAD-responsive element luciferase reporter in Hek293T cells)
# Assay type: cell-based
# Conditions: Homo sapiens, HEK-293T; Hek293T cells transfected with TEAD-responsive luciferase reporter, 24 hours incubation
# Procedure: Hek293T cells are cultured in DMEM supplemented with 10% fetal bovine serum, Sodium pyruvate, Sodium bicarbonate, L-glutamine. The cells are harvested and transiently transfected with TEAD-responsive element luciferase reporter. Transfected cells are plated in 384-wells plate containing pre-diluted compounds. After 24 hours incubation at 37° C./5% CO2, assay plates were cooled down to RT and levelled to an equal volume per well, prior to the addition of 25 uL luciferase substrate SteadyLite (Perkin Elmer)/well. The plate was shaken for 10 min at 600 rpm, centrifuged for 1 min at 500 rpm and measured with an Envision reader (PerkinElmer). The amount of relative light units produced by the TEAD reporter is used to calculated percent of inhibition.
# The percent of reporter inhibition was calculated in the presence of a positive control inhibitor (100% inhibition) versus a condition with the presence of the vehicle basal activity of the reporter (0% inhibition). The ability of a test compound to inhibit this activity was determined as:
# Percentage inhibition=[1−((RLU determined in the presence of vehicle−RLU determined for sample with test compound present) divided by (RLU determined in the presence of vehicle−RLU determined for sample with positive control inhibitor))]*100
# The activities of example compounds tested are depicted in Table 6. The activity ranges A, B and C refer to IC50 values in the reporter gene assay as follows: “A”: IC50<1 μM; “B”: 1 μM≤IC50≤20 μM and “C”: IC50>20 μM; NT=not tested.
row,EC50 [µM],Compound
1,< 1,"C=CC(=O)Nc1cn(-c2ccc(Cl)cc2)c2ccccc12 [compound 24, N-(1-(4-chlorophenyl)-1H-indol-3-yl)acrylamide]"
2,> 20,"Cn1ccc(-c2cc(-c3ccccc3)cn3cc(CC(=O)O)nc23)n1 [compound 35, 2-(8-(1-methyl-1H-pyrazol-3-yl)-6-phenylimidazo[1,2-a]pyridin-2-yl)acetic acid]"
3,< 1,"O=C1OCCN1Cc1nn(-c2ccc(C(F)(F)F)cc2)c2ccccc12 [compound 18, 3-((1-(4-(trifluoromethyl)phenyl)-1H-indazol-3-yl)methyl)oxazolidin-2-one]"
4,< 1,"C=CC(=O)Nc1cn(-c2ccc(C(C)C)cc2)c2ccccc12 [compound 23, N-(1-(4-isopropylphenyl)-1H-indol-3-yl)acrylamide]"
5,> 20,"CS(=O)(=O)NCc1nn(-c2ccc(C(F)(F)F)cc2)c2ccc(OCC#N)cc12 [compound 42, N-[[5-(cyanomethoxy)-1-[4-(trifluoromethyl)phenyl]indazol-3-yl]methyl]methanesulfonamide]"
6,< 1,"C=CC(=O)NCc1cc2ccccc2n1Cc1cccc(C(F)(F)F)c1 [compound 32, N-((1-(3-(trifluoromethyl)benzyl)-1H-indol-2-yl)methyl)acrylamide]"
7,> 20,"Cn1ccc(-c2cc(Nc3ccccc3)cn3cc(CC(=O)O)nc23)n1 [compound 38, 2-(8-(1-methyl-1H-pyrazol-3-yl)-6-(phenylamino)imidazo[1,2-a]pyridin-2-yl)acetic acid]"
8,1 to 20,"O=C(NCC(O)CO)c1nn(-c2ccc(C(F)(F)F)cc2)c2ccccc12 (centres unmarked) [compound 15, N-(2,3-dihydroxypropyl)-1-(4-(trifluoromethyl)phenyl)-1H-indazole-3-carboxamide]"
9,1 to 20,"CN(C)S(=O)(=O)NCc1nn(-c2ccc(C(F)(F)F)cc2)c2ccccc12 [compound 13, N,N-dimethyl-N′-((1-(4-(trifluoromethyl)phenyl)-1H-indazol-3-yl)methyl)sulfamide]"
10,> 20,"CCC(=O)NCc1cc2ccccc2n1-c1ccc(C(F)(F)F)cc1 [compound 30, N-((1-(4-(trifluoromethyl)phenyl)-1H-indol-2-yl)methyl)propionamide]"
11,1 to 20,"CS(=N)(=O)NCc1nn(-c2ccc(C(F)(F)F)cc2)c2ccccc12 (centres unmarked) [compound 16, N-((1-(4-(trifluoromethyl)phenyl)-1H-indazol-3-yl)methyl)methanesulfonimidamide]"
12,> 20,"CNC(=O)Cc1cn2cc(Nc3ccccc3)cc(-c3ccn(C)n3)c2n1 [compound 39, N-methyl-2-(8-(1-methyl-1H-pyrazol-3-yl)-6-(phenylamino)imidazo[1,2-a]pyridin-2-yl)acetamide]"
13,> 20,"O=S(=O)(NCc1nn(-c2ccc(C(F)(F)F)cc2)c2ccccc12)c1cccnc1 [compound 10, N-((1-(4-(trifluoromethyl)phenyl)-1H-indazol-3-yl)methyl)pyridine-3-sulfonamide]"
14,1 to 20,"CS(=O)(=O)NCc1nn(-c2ccc(C(F)(F)F)cc2)c2ccc(Oc3ccccc3)cc12 [Cpd. No. 45, N-[[5-phenoxy-1-[4-(trifluoromethyl)phenyl]indazol-3-yl]methyl]methanesulfonamide]"
15,1 to 20,"CCC(=O)NCc1cn(-c2ccc(C(F)(F)F)cc2)c2ccccc12 [compound 28, N-((1-(4-(trifluoromethyl)phenyl)-1H-indol-3-yl)methyl)propionamide]"
16,> 20,"CCC(=O)NCc1nn(-c2ccc(C(F)(F)F)cc2)c2cc(OC3CC3)ccc12 [compound 62, N-[[6-(cyclopropoxy)-1-[4-(trifluoromethyl)phenyl]indazol-3-yl]methyl]propanamide]"
17,< 1,"C=CC(=O)NCc1nn(-c2ccc(C(F)(F)F)cc2)c2ccc(Oc3cc(=O)[nH]c(=O)n3C)cc12 [compound 51, N-[[5-(3-methyl-2,6-dioxo-pyrimidin-4-yl)oxy-1-[4-(trifluoromethyl)phenyl]indazol-3-yl]methyl]prop-2-enamide]"
18,> 20,"CNC(=O)Cc1cn2cc(-c3ccccc3)cc(-c3ccn(C)n3)c2n1 [compound 37, N-methyl-2-(8-(1-methyl-1H-pyrazol-3-yl)-6-phenylimidazo[1,2-a]pyridin-2-yl)acetamide]"
19,> 20,"Cn1c(Oc2ccc3c(c2)c(CNS(C)(=O)=O)nn3-c2ccc(C(F)(F)F)cc2)cc(=O)[nH]c1=O [compound 60, N-[[5-(3-methyl-2,6-dioxo-pyrimidin-4-yl)oxy-1-[4-(trifluoromethyl)phenyl]indazol-3-yl]methyl]methanesulfonamide]"

row,EC50 [µM],Compound
1,> 20,"O=C(NS(=O)(=O)C1CC1)c1nn(-c2ccc(C(F)(F)F)cc2)c2ccccc12 [compound 14, N-(cyclopropylsulfonyl)-1-(4-(trifluoromethyl)phenyl)-1H-indazole-3-carboxamide]"
2,1 to 20,"CS(=O)(=O)NCc1nn(-c2ccc(C(F)(F)F)cc2)c2cc(OC3CC3)ccc12 [compound 61, N-[[6-(cyclopropoxy)-1-[4-(trifluoromethyl)phenyl]indazol-3-yl]methyl]methanesulfonamide]"
3,> 20,"CNC(=O)c1nn(-c2ccc(C(F)(F)F)cc2)c2ccccc12 [compound 8, N-methyl-1-(4-(trifluoromethyl)phenyl)-1H-indazole-3-carboxamide]"
4,> 20,"CC(=O)NCc1nn(-c2ccc(C(F)(F)F)cc2)c2cc(C(F)(F)F)ccc12 [compound 75, N-[[6-(trifluoromethyl)-1-[4-(trifluoromethyl)phenyl]indazol-3-yl]methyl]acetamide]"
5,1 to 20,"O=S1(=O)CCCN1Cc1nn(-c2ccc(C(F)(F)F)cc2)c2ccccc12 [compound 7, 2-((1-(4-(trifluoromethyl)phenyl)-1H-indazol-3-yl)methyl)isothiazolidine 1,1-dioxide]"
6,1 to 20,"CS(=O)(=O)NC(=O)c1nn(-c2ccc(C(F)(F)F)cc2)c2ccccc12 [compound 12, N-(methylsulfonyl)-1-(4-(trifluoromethyl)phenyl)-1H-indazole-3-carboxamide]"
7,< 1,"C=C(CNc1nn(-c2ccc(C(F)(F)F)cc2)c2ccccc12)C(=O)O [compound 70, 2-[[[1-[4-(trifluoromethyl)phenyl]indazol-3-yl]amino]methyl]prop-2-enoic acid]"
8,> 20,"CCC(=O)NCc1nn(-c2ccc(C(F)(F)F)cc2)c2ccc(OCc3ccccc3)cc12 [compound 55, N-[[5-benzyloxy-1-[4-(trifluoromethyl)phenyl]indazol-3-yl]methyl]propanamide]"
9,1 to 20,"O=S(=O)(NCc1nn(-c2ccc(C(F)(F)F)cc2)c2ccccc12)C1CC1 [compound 11, N-((1-(4-(trifluoromethyl)phenyl)-1H-indazol-3-yl)methyl)cyclopropanesulfonamide]"
10,1 to 20,"CC(=O)NCc1nn(-c2ccc(C(F)(F)F)cc2)c2ccc(C(F)(F)F)cc12 [compound 72, N-[[5-(trifluoromethyl)-1-[4-(trifluoromethyl)phenyl]indazol-3-yl]methyl]acetamide]"
11,1 to 20,"N#CCS(=O)(=O)NCc1nn(-c2ccc(C(F)(F)F)cc2)c2ccccc12 [compound 57, 1-cyano-N-[[1-[4-(trifluoromethyl)phenyl]indazol-3-yl]methyl]methanesulfonamide]"
12,1 to 20,"CS(=O)(=O)NCc1nn(-c2ccc(C(F)(F)F)cc2)c2cc(C(F)(F)F)ccc12 [compound 76, N-[[6-(trifluoromethyl)-1-[4-(trifluoromethyl)phenyl]indazol-3-yl]methyl]methanesulfonamide]"
13,< 1,"C=CC(=O)Nc1cn(-c2ccc(-c3ccccc3)cc2)c2ccccc12 [compound 26, N-(1-([1,1′-biphenyl]-4-yl)-1H-indol-3-yl)acrylamide]"
14,> 20,"C#CCOc1ccc2c(c1)c(CNC(=O)CC)nn2-c1ccc(C(F)(F)F)cc1 [compound 64, N-[[5-prop-2-ynoxy-1-[4-(trifluoromethyl)phenyl]indazol-3-yl]methyl]propanamide]"
15,> 20,"Cn1cc(S(=O)(=O)NCc2nn(-c3ccc(C(F)(F)F)cc3)c3ccccc23)cn1 [compound 9, 1-methyl-N-((1-(4-(trifluoromethyl)phenyl)-1H-indazol-3-yl)methyl)-1H-pyrazole-4-sulfonamide]"
16,1 to 20,"C=CC(=O)NC1C(=O)N(c2ccc(C(F)(F)F)cc2)c2ccccc21 (centres unmarked) [compound 33, N-(2-oxo-1-(4-(trifluoromethyl)phenyl)indolin-3-yl)acrylamide]"
17,1 to 20,"CCC(=O)NCc1nn(-c2ccc(OC(F)(F)F)cc2)c2ccccc12 [compound 5, N-((1-(4-(trifluoromethoxy)phenyl)-1H-indazol-3-yl)methyl)propionamide]"
18,< 1,"CS(=O)(=O)NCc1nn(-c2ccc(C(F)(F)F)cc2)c2ccc(OCC3CC3)cc12 [compound 68, N-[[5-(cyclopropylmethoxy)-1-[4-(trifluoromethyl)phenyl]indazol-3-yl]methyl]methanesulfonamide]"
19,1 to 20,"CS(=O)(=O)NCc1nn(-c2ccc(C(F)(F)F)cc2)c2ccc(C(F)(F)F)cc12 [compound 73, N-[[5-(trifluoromethyl)-1-[4-(trifluoromethyl)phenyl]indazol-3-yl]methyl]methanesulfonamide]"
